Molecular target: Ar‐BVMO (Acinetobacter radioresistens, UniProt D7PBN2)
Test: HPLC product detection
Type: biochemical
Details: 500 uM substrate, 500 uM NADPH, 0.7 uM enzyme, 37 C, 20 min

CCc1cc(C(N)=S)ccn1 [ethionamide]
HPLC product detection (ethionamide S-oxide): confirmed the presence of ethionamide S‐oxide product

Reference: paper PMC3815892 (Microbial biotechnology, 2012)
